According to patent publication US6599943B1, “Use of hydroxyguanidines” (WaPharm AB, priority 1996, dated 2003):
Structures can show the parent of a compound that is named as a salt. Marks after values point to notes of the source that are not given here.

How the values were obtained:
[1] = tested on: rat hearts (reperfusion injury); experiment: Reperfusion injury of the heart: coronary artery occlusion/reperfusion arrhythmias; assay type: in vivo; details: for Ventricular fibrilation Insidence (%) / Ventricular fibrilation Insidence (number of animals) / Ventricular tachycardia Insidence (%) / Ventricular tachycardia Insidence (number of animals) / Ventricular fibrilation Duration / Ventricular tachycardia Duration / Ventricular fibrilation Duration (s) / Ventricular tachycardia Duration (s): 20 min reperfusion; for Ventricular fibrilation Duration / Ventricular tachycardia Duration / Ventricular fibrilation Duration (s) / Ventricular tachycardia Duration (s): mean ±SEM; for effect on incidence and duration of ventricular tachycardias and fibrillations and on mortality, in words: versus control, p<0.05
Source text: Capacity of a hydroxyguanidine (PR5) to afford a tissue protective effect in the heart. […] In this model the coronary arteries of rat hearts were occluded, and after some time reperfusion was allowed to occur. During reperfusion events of cardiac arrhythmias are observed. They are well known to be related to the accumulation of oxygen derived free radicals. These arrhythmias are monitored in the animals treated with PR5 and in control animals either receiving no drug or allopurinol. Allopurinol was used as a control because it is well known from the litterature as an agent capable of preventing the generation of oxygen derived free radicals. In brief, rats were anaesthetised with sodium pentobarbital and ventilated with air using a respirator for small animals at a pressure 15-20 cm H2O and a […] rate of 60 strokes/min. ECG (electrocardiogram) and systemic blood pressure was registered on a Physiograph DMP-4B (Narco Bio-Systems, Houston, USA) using, respectively, a standard lead II and a pressure transducer PR-1500 (Narco Bio-Systems, Houston, USA) contected via a catheter to the left carotid artery. The chest was opened via the fourth intercostal space, the pericardium incised and a sling (4/0 silk Medicor, Budapest, Hungary) was placed around the left coronary artery close to its origin. The silk ligature was passed through a piece of plastic tubing, the chest was partially closed and the animal was allowed to recover for 10 min. PR-5, dissolved in 0.9% NaCl, was then injected i.v. 10 min before the occlusion of the coronary artery at doses 1, 3 or 10 mg/kg body weight. As control served the same volume of 0.9% NaCl. The coronary artery was occluded for a period of 10 min by applying tension to the ligature and pressing the tube onto the heart surface. Reperfusion was initiated by removing the clamp and releasing the tension on the ligature and allowing the perfusion to continue for 20 min. Ventricular ectopic activity was assessed during the 20 min reperfusion period by measuring the duration of ventricular tachycardias and ventricular fibrillations from the ECG curves. The results are shown in Table 2, where the results are presented as mean ±SEM (in seconds) for the total duration of ventricular tachycardias and ventricular fibrillations during the 20 min reperfusion period, (or until eventual death of the animal). The incidence of animals showing ventricular tachycardia and ventricular fibrillation are also given Table 2 as the number of animals showing ventricular tachycardia and ventricular fibrillation. Figures in parenthese relate to incidents expressed in % of the total number of animals.
In Table 2 a star “*” denotes a significant difference from the control at p<0.05 using the appropriate statistical test. Alp=allopurinol. n=number of animals tested.

[2] = target: T1, bovine milk xanthine oxidase (Bos taurus, UniProt P80457); details: 20 μM allopurinol, 100 μM xanthine, 0.004 units/ml xanthine oxidase
Target sequence in this assay (P80457 2-1332): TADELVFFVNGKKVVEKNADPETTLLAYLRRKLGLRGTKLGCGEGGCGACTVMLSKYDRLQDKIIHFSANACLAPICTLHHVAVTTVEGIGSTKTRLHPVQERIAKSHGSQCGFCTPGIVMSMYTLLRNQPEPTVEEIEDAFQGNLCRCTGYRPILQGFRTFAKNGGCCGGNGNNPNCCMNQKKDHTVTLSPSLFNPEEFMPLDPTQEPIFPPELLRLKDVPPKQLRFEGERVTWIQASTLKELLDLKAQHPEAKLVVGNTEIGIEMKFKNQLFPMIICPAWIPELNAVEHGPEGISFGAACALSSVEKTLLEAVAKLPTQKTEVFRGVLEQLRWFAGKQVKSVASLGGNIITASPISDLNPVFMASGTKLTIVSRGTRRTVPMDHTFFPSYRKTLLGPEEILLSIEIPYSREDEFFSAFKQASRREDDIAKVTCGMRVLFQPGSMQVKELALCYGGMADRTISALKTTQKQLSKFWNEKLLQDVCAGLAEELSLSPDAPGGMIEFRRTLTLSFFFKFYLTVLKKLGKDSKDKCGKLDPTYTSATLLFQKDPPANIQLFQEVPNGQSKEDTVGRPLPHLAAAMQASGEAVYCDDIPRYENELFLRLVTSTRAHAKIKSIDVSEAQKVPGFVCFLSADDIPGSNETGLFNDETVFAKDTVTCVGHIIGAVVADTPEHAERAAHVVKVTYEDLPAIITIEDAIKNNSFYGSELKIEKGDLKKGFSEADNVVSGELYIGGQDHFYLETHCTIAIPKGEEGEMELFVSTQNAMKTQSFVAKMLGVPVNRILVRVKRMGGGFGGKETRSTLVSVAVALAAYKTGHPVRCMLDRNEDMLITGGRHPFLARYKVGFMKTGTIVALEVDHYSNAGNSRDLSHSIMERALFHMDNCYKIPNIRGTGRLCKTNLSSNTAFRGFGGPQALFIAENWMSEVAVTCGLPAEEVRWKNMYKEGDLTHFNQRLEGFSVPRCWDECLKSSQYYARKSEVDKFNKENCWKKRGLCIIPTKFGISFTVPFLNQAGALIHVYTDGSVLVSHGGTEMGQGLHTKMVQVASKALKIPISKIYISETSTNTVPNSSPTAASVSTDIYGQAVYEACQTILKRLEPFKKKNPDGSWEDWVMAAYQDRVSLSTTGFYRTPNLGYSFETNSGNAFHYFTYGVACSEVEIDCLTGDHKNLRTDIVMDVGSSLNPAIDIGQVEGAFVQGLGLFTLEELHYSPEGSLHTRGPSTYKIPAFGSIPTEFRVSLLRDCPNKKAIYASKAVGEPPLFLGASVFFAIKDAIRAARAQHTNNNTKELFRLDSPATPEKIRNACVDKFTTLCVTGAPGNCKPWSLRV
Procedure: Capacity of allopurinol to inhibit the reduction of hydroxyguanidines by xanthine oxidase. […] In these tests varying amounts of guanoxabenz was added to assays yielding 150 μl final volumes and containing final concentrations 0.004 units/ml of bovine milk xanthine oxidase (Sigma, St. Louis, MO., USA), 100 μM xanthine, 20 μM allopurinol, 50 pM α2-adrenoceptors (in HT29 cell membranes), 33 mM Tris HCl, 1 mM EDTA, pH 7.5, and incubating for 1 hour at 25° C.

[3] = tested on: rat spleen tissue; experiment: Formation of uric acid in spleen tissue under anaerobic conditions, HPLC
Procedure: Capacity of a hydroxyguanidine (PR5) to sustain the formation of uric acid in tissues. […] Pieces of 0.6 g of rat spleen tissue were incubated in 7.5 ml argon-saturated Tris-Ringer buffer (4 mM KCl, 100 mM NaCl, 2 mM CaCl2, 2 mg/ml glucose and 40 mM TrisHCl, pH 7.4) in 50 ml Erlenmeyer flasks at 37° C., care being taken to maintain an atmosphere of argon above the incubations. As aerobic control served identical incubations, except that the buffers were saturated with air and the incubations performed under air. After 30 min the flasks were opened and the tissues minced to obtain tissue cubes with about 1 mm sides. […] The supernatants were then centrifuged using Ultrafree-MC Biomax-10 Millipore filtration devices at 5000×g for 0.5 hr in order to obtain an essentially particle free preparation which was being kept at −20° C. until analysed for the uric acid content using HPLC.
For analysing the uric acid content the above preparations were thawed and 0.05 ml aliquots were injected onto Waters 2690 Separation Module using a 2.1×250 mm Vydac RP C18, 90A, 201HS1010 column using a linear gradient of 10 mM KH2PO4 (A) and 10 mM KH2PO4 in 50% (v/v) methanol/water (B) (both at pH 4.55 adjusted with phosphoric acid). […] The uric acid peak was eluted after 13 min and was identified and detected according to the spectrum of a standard uric acid reference.

[4] = target: T1, bovine milk xanthine oxidase; experiment: Capacity to sustain oxidation of xanthine by xanthine oxidase in the absence of oxygen, spectrophotometric; assay type: biochemical; set-up: host or cells: bovine milk; details: for V = 1000 × (Δabs 295 nm) min^−1 (initial rate of the support of the oxidation of xanthine): 50 μM hydroxyguanidine, 50 μM xanthine, 0.05 units/ml xanthine oxidase, anaerobic, pH 7.5, 20° C., blank subtracted
Procedure: Capacities of a series of hydroxyguanidine to sustain the oxidation of xanthine by xanthine oxidase in the absence of oxygen. The capacities of various hydroxyguanidines to sustain the oxidation of xanthine was assayed by using a spectrophotometric method. In this method bovine milk xanthine oxidase was injected to a Helma® sealable cuvette for anaerobic application thereby creating 1 ml of a reaction mixture that contained reagents as follows: 50 μM of a hydroxyguanidine, 50 μM xanthine, 0.05 units/ml bovine milk xanthine oxidase, 50 mM Tris and 1.5 mM EDTA; the pH of the reaction mixture being 7.5, and the temperature 20° C. Anaerobic conditions were assured by pre-gassing all solutions used for 5-10 min, with nitrogen. The rate of formation of uric acid was monitored spectrophotometrically by measuring the increase in absorbance at 295 nm (the absorption maximum for uric acid) at intervals. The relative capacities of the hydroxyguanidines to sustain oxidation of xanthine were estimated from the derivative of the initial linear phase of the curves. To obtain blank readings an equal volume of the solvent of the hydroxyguanidine (water) was added to the reaction mixture in separate experiments and the initial rate of absorbance change was substracted from the rate readings of the tested hydroxyguanidine.
Exemplary initial rates for the rate of the support of the oxidation of xanthine obtained by assaying the exemplary hydroxyguanidines listed above by the method in the present example are furthermore given in Table 2: […]
Target sequence in this assay (P80457 whole entry): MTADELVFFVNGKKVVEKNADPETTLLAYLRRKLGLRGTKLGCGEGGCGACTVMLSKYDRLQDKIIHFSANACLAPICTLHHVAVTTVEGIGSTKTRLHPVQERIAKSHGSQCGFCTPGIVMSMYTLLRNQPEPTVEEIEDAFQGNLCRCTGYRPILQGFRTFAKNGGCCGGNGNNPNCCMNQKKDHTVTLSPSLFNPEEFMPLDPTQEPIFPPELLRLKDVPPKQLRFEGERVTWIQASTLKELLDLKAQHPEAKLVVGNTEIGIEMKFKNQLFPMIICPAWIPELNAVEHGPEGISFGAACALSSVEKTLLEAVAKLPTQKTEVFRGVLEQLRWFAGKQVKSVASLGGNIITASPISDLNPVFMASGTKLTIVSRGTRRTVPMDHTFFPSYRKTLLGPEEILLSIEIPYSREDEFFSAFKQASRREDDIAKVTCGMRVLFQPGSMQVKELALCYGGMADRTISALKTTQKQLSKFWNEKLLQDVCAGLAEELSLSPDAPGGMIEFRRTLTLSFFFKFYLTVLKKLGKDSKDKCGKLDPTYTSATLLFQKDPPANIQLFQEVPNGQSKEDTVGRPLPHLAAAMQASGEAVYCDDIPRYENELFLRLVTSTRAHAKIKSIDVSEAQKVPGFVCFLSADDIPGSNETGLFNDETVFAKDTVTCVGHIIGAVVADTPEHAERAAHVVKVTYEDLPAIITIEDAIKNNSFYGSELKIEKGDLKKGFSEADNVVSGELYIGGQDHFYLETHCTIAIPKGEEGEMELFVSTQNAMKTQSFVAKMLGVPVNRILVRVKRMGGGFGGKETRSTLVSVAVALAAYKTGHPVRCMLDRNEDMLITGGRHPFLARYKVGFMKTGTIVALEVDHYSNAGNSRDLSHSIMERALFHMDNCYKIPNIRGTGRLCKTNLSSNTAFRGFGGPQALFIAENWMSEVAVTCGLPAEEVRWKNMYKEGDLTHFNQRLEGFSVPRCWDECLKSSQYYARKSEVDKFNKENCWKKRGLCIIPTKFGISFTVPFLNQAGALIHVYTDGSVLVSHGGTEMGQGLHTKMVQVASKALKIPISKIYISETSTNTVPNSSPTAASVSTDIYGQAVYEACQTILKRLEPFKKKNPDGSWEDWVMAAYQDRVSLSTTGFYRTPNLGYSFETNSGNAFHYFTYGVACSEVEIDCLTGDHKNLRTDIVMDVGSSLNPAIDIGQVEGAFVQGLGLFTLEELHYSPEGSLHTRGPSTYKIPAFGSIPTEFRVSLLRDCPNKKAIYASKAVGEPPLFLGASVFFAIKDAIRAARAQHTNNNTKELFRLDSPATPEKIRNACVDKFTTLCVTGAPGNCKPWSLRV

[5] = 1 mg/kg i.v. 10 min before occlusion
[6] = 3 mg/kg i.v. 10 min before occlusion

Question: Which “Mortality Insidence (%)” value ([1]; 10 mg/kg) does the source give for `Oc1ncnc2[nH]ncc12` [Allopurinol, 1H-pyrazolo[3,4-d]pyrimidin-4ol, reference compound] here?
Answer: The value was 7%.

Question: What about the “Mortality Insidence (number of animals)” value ([1]; 10 mg/kg) of the same compound?
Answer: Its value is 1.

Question: And the “Ventricular fibrilation Insidence (%)” value ([1]; 10 mg/kg)?
Answer: The value was 50%.

Question: And the “Ventricular fibrilation Insidence (number of animals)” value ([1]; 10 mg/kg)?
Answer: The value was 7.

Question: What about the “Ventricular tachycardia Insidence (%)” value ([1]; 10 mg/kg) of the same compound?
Answer: The value was 64%.

Question: What about the “Ventricular tachycardia Insidence (number of animals)” value ([1]; 10 mg/kg) of the same compound?
Answer: Its value is 9.

Question: And the “Ventricular fibrilation Duration” value ([1]; 10 mg/kg)?
Answer: Its value is 30 ± 10 s.

Question: What about the “Ventricular tachycardia Duration” value ([1]; 10 mg/kg) of the same compound?
Answer: The value was 59 ± 12 s.

Question: What about the “effect on incidence and duration of ventricular tachycardias and fibrillations and on mortality, in words” value [1] of the same compound?
Answer: Its value is “reduces these indices, although to a lesser extent than 3-10 mg/kg of PR5”.

Question: And the “decrease in the apparent affinity of guanoxabenz on addition of allopurinol” value [2]?
Answer: The value was “about 24 fold”.

Question: For `COc1ccc(C=NNC(=N)NO)c(Cl)c1OC` [PR5, N-(3,4-Dimethoxy-2-chlorobenzylideneamino)-N′-hydroxyguanidine tosylate], which “Mortality Insidence (%)” value ([1]; 1 mg/kg i.v.) is on record?
Answer: The value was 14%.

Question: What about the “Mortality Insidence (number of animals)” value ([1]; 1 mg/kg i.v.) of the same compound?
Answer: Its value is 2.

Question: And the “Ventricular tachycardia Insidence (%)” value [1, 5]?
Answer: The value was 79%.

Question: And the “Ventricular tachycardia Insidence (number of animals)” value [1, 5]?
Answer: The value was 11.

Question: And the “Ventricular fibrilation Insidence (%)” value ([1]; 1 mg/kg i.v.)?
Answer: The value was 57%.

Question: And the “Ventricular fibrilation Insidence (number of animals)” value ([1]; 1 mg/kg i.v.)?
Answer: The value was 8.

Question: What about the “Ventricular fibrilation Duration” value ([1]; 1 mg/kg i.v.) of the same compound?
Answer: The value was 34 ± 9 s.

Question: And the “Ventricular tachycardia Duration” value ([1]; 1 mg/kg i.v.)?
Answer: The value was 61 ± 11 s.

Question: And the “Mortality Insidence (%)” value ([1]; 3 mg/kg i.v.)?
Answer: Its value is 0 (0)* %.

Question: And the “Mortality Insidence (number of animals)” value ([1]; 3 mg/kg i.v.)?
Answer: Its value is 0 (0)*.

Question: And the “Ventricular tachycardia Insidence (%)” value [1, 6]?
Answer: The value was 64%.

Question: And the “Ventricular tachycardia Insidence (number of animals)” value [1, 6]?
Answer: The value was 9.

Question: What about the “Ventricular fibrilation Insidence (%)” value ([1]; 3 mg/kg i.v.) of the same compound?
Answer: Its value is 43%.

Question: What about the “Ventricular fibrilation Insidence (number of animals)” value ([1]; 3 mg/kg i.v.) of the same compound?
Answer: Its value is 6.

Question: What about the “Ventricular fibrilation Duration (s)” value ([1]; 3 mg/kg i.v.) of the same compound?
Answer: Its value is 20 ± 7* s.

Question: And the “Ventricular tachycardia Duration (s)” value ([1]; 3 mg/kg i.v.)?
Answer: Its value is 38 ± 7* s.

Question: And the “Mortality Insidence (%)” value ([1]; 10 mg/kg)?
Answer: The value was 7%.

Question: What about the “Mortality Insidence (number of animals)” value ([1]; 10 mg/kg) of the same compound?
Answer: Its value is 1.

Question: What about the “Ventricular fibrilation Insidence (%)” value ([1]; 10 mg/kg) of the same compound?
Answer: Its value is 36%.

Question: What about the “Ventricular fibrilation Insidence (number of animals)” value ([1]; 10 mg/kg) of the same compound?
Answer: The value was 5.

Question: What about the “Ventricular tachycardia Insidence (%)” value ([1]; 10 mg/kg) of the same compound?
Answer: The value was 57%.

Question: What about the “Ventricular tachycardia Insidence (number of animals)” value ([1]; 10 mg/kg) of the same compound?
Answer: The value was 8.

Question: And the “Ventricular fibrilation Duration (s)” value ([1]; 10 mg/kg)?
Answer: The value was 17 ± 5* s.

Question: And the “Ventricular tachycardia Duration (s)” value ([1]; 10 mg/kg)?
Answer: The value was 34 ± 7* s.

Question: What about the “effect on incidence and duration of ventricular tachycardias and fibrillations and on mortality, in words” value [1] of the same compound?
Answer: The value was “significant decrease”.

Question: What about the “uric acid in original incubation medium” value ([3]; 0.5 mM PR5, anaerobic (argon), 60 min, 37° C.) of the same compound?
Answer: The value was 285.5 µmol/L.

Question: What about the “formation of uric acid under the anaerobic conditions, in words” value ([3]; 0.5 mM PR5, compared with aerobic control) of the same compound?
Answer: Its value is “restored completely to that of the aerobic control”.

Question: And the “V = 1000 × (Δabs 295 nm) min^−1 (initial rate of the support of the oxidation of xanthine)” value [4]?
Answer: Its value is 96 1000 × (Δabs 295 nm) min^−1.

Question: What about the “activity / capacity to undergo reduction (reaction A), in words” value ([4]; as disclosed in Example 7) of the same compound?
Answer: Its value is “high activity”.

Question: “N-(3- Chloro-5-trifuluoromethylpyridyl-2-methyleneamino)-N′-hydroxyguanidine tosylate [PR14]” was tested. Which “V = 1000 × (Δabs 295 nm) min^−1 (initial rate of the support of the oxidation of xanthine)” value [4] did it give?
Answer: The value was 14 1000 × (Δabs 295 nm) min^−1.
